We go through one compound from US20110160260A1, “Method of Treating a Neurodegenerative Disorder” (Chung Shan Medical University, priority 2009, published 2011).

The structures appear in SMILES notation.

Assay type in all cases: in vivo, Wistar rats
In assay [1] the test system is DAergic neurons in striatum and SNc of MPTP-lesioned rats. Nature of the assay: Tyrosine hydroxylase (TH) immunostaining of striatum and SNc, image analysis. As to the method: (§1) Thirty-nine male Wistar rats (306.2±0.9 g; BioLASCO Taiwan Co., Ltd.) were used as experimental animals in the present invention. All experimental procedures were performed according to the NIH Guide for the Care and Use of Laboratory Animals and were approved by the Animal Care Committee of the Chung Shan Medical University (IACUC approval No.: 434). All animals underwent stereotaxic surgery and MPTP were injected into the substantia nigra pars compacta (SNc) in the animals to establish Parkinson's disease animal model. One day after the surgery, the rats received daily dose of intraperitoneal (i.p.) injections of D-cycloserine (DCS) (0, 5, or 10 mg/kg/day) or saline at 18:00 for 13 days. The animals were divided respectively into groups of experimental group 0 (E0), receiving MPTP+saline, experimental group 1 (E1), receiving MPTP+DCS 5 mg/kg/day, experimental group 2 (E2), receiving MPTP+DCS 10 mg/kg/day and Sham-operated group/control group (CR), receiving saline (1 ml/kg/day, i.p.) (also called control group or Sham+saline group). The descriptions of “control group, experimental group 0, experimental group 1 and experimental group 2” were used below.
(§2) For the brain surgery, all animals were intraperitoneal injected with Zoletil (2 mg/kg; Virbac, Carros, Franc) and received stereotaxic surgery after anesthetization. MPTP-HCl (1 μmol in 2 μl of saline; Sigma, Mo., USA) (Da Cunha et al., Behav Brain Res, 2001, 124:9-18; Gevaerd et al., Brain Res Bull, 2001, 55: 101-6) or saline (2 μl) were microinjected into the substantia nigra pars compacta (SNc).
One day after the test of episodic-like memory, rats were sacrificed under deep anesthesia by CO2. For histological assessment, 5-6 randomly selected rats per group were perfused cardiacly with 4% paraformaldehyde in phosphate-buffered saline (PBS), and the brains were removed rapidly and post-fixed in 20% sucrose solution with 4% paraformaldehyde at 4° C. […]
A microscope (ZEISS AXioskop2, Germany) disposed with a CCD (Optronics, USA) and the Image Pro Plus Software 6.0 (Media Cybernetics, CA, USA) was used for observation. […] The gray level of a given area of interest was measured, and the background staining measured in non-immunoreactive corpus callosum was subtracted. […] The somas of TH immunoreactive neurons located in this area were counted. The density of activated microglia was measured, according to the methods described in the literature (Sugama S, et al., Brain Res, 2003, 964: 288-94). […] Then, the numbers of activated microglial cells in the SNc, striatum, and hippocampus were counted in the areas of interest (measuring 18,769, 36,477, and 18,769 μm^2, respectively). […]

In assay [2] the test system is pyramidal neurons in hippocampal CA1 area of MPTP-lesioned rats. As to the kind of experiment: Nissl staining of hippocampal CA1 pyramidal cell layer, neuronal density. The conditions noted are these: DCS 10 mg/kg/day. How it is done: Thirty-nine male Wistar rats (306.2±0.9 g; BioLASCO Taiwan Co., Ltd.) were used as experimental animals in the present invention. All experimental procedures were performed according to the NIH Guide for the Care and Use of Laboratory Animals and were approved by the Animal Care Committee of the Chung Shan Medical University (IACUC approval No.: 434). All animals underwent stereotaxic surgery and MPTP were injected into the substantia nigra pars compacta (SNc) in the animals to establish Parkinson's disease animal model. One day after the surgery, the rats received daily dose of intraperitoneal (i.p.) injections of D-cycloserine (DCS) (0, 5, or 10 mg/kg/day) or saline at 18:00 for 13 days. […]
A microscope (ZEISS AXioskop2, Germany) disposed with a CCD (Optronics, USA) and the Image Pro Plus Software 6.0 (Media Cybernetics, CA, USA) was used for observation. […] The gray level of a given area of interest was measured, and the background staining measured in non-immunoreactive corpus callosum was subtracted. […] The somas of TH immunoreactive neurons located in this area were counted. The density of activated microglia was measured, according to the methods described in the literature (Sugama S, et al., Brain Res, 2003, 964: 288-94). […]

Assay [3] deals with MPTP-lesioned rats (Parkinson's disease animal model). As to the kind of experiment: Episodic-like memory test in MPTP-lesioned rats. As to the method: as §1, §2
The episodic-like memory test was performed in an open field (60×60×40 cm, without roof allowing rats to aware external distal cues), 13 days after the MPTP lesion. The floor of the open field was divided into 9 areas of equal size. A video camera was mounted 160 cm above the center of the open field to record and analysis the behavior of rats. Two different sets of objects made of metal or plastic were used in the experiment. The objects weighed about 950 g and therefore, they were unmovable by the rats. The two objects differed in the diameter of base, height, color, shape, and surface texture (the metal object: column in shape, 6.5 cm in diameter, 12 cm high, silver-colored, smooth surface; the plastic object: cuboid in shape, a 7.5×5 cm cross section, 15 cm high, pellucid-colored, rough surface). One day before the test, rats were placed individually into the open field for twice and allowed to explore it (once for 5 min), with a 4 h interval, for adapting to the testing environment.
The procedure of episodic-like memory test was consistent with previous reported research (Li and Chao., Neurobiol Learn Mem 2008; 89:192-8). The method comprised two sample trials and one testing trial. In the first sample trial, the rats were placed in the open field with four identical objects (FIG. 1A, upper left), and allowed to explore them for 5 min. After an interval of 60 min, the rats were put into the same open field again and received the second sample trial for 5 min, wherein the objects were replaced with another objects and the spatial configuration was changed (FIG. 1A, lower left). After an additional interval of 60 min, the rats received a testing trial, wherein two identical objects from sample trial 1 (the “old” objects; “O”) and two identical objects from sample trial 2 (the “recent” objects; “R”) were presented. In the testing trial, animals encountered a mixed set consisting of two “O” and two “R” objects. One object from each of the two sets of objects was placed in the “same” location as in the sample trials (Os and Rs). The other two objects were “displaced” to new locations (Od and Rd) (FIG. 1A, lower right). Time spent on exploring the objects was recorded.

In assay [4] the test system is activated microglia in SNc, striatum and hippocampus of MPTP-lesioned rats. Nature of the assay: OX-6 (MHC class II) immunostaining, density of activated microglia. As to the method: as §1, §2
One day after the test of episodic-like memory, rats were sacrificed under deep anesthesia by CO2. For histological assessment, 5-6 randomly selected rats per group were perfused cardiacly with 4% paraformaldehyde in phosphate-buffered saline (PBS), and the brains were removed rapidly and post-fixed in 20% sucrose solution with 4% paraformaldehyde at 4° C. The frozen coronal brain sections were cut into 30 μm and further immunostained with mouse monoclonal antibodies against rat tyrosine hydroxylase (TH) (1:2000; Zymade, USA) or rat MHC class II (OX-6; 1:200; BD Biosciences Pharmingen, CA, USA) at 4° C. overnight, identical to the method used in our previous report (Wang, Wu, Liou, et. al, Behav Neurosci, 2009). In sections containing hippocampus, neurons in the hippocampus was identified by Nissl staining method.
A microscope (ZEISS AXioskop2, Germany) disposed with a CCD (Optronics, USA) and the Image Pro Plus Software 6.0 (Media Cybernetics, CA, USA) was used for observation. The three square areas (measuring 36,477, 18,769, and 2,354 μm^2) were applied respectively to determine the relative optical density of TH immunoreactivity in the striatum and the neuronal density in the SNc and hippocampal CA1 area. The images of TH staining were converted to the gray scale for measuring the density of DAergic projections. The gray level of a given area of interest was measured, and the background staining measured in non-immunoreactive corpus callosum was subtracted. […] The somas of TH immunoreactive neurons located in this area were counted. The density of activated microglia was measured, according to the methods described in the literature (Sugama S, et al., Brain Res, 2003, 964: 288-94). […] Then, the numbers of activated microglial cells in the SNc, striatum, and hippocampus were counted in the areas of interest (measuring 18,769, 36,477, and 18,769 μm^2, respectively). […]

On to `N[C@@H]1CONC1=O` [DCS, D-4-amino-3-isoxazolidone], for which the “MPTP-induced reduction in relative optical density of TH immunoreactivity in the striatum” value in assay [1] (DCS 5 mg/kg/day) and in assay [1] (DCS 10 mg/kg/day) was “blocked” in each case. Further, the “MPTP-induced reduction in the density of DAergic neurons in the SNc” value in assay [1] (DCS 5 mg/kg/day) and in assay [1] (DCS 10 mg/kg/day) was “blocked” throughout. Also, in assay [2], the “MPTP-induced decrease of neuronal density in the pyramidal cell layer of hippocampal CA1 area” value is recorded as “blocked”. The “function of episodic-like memory after MPTP lesion” value in assay [3] (DCS 10 mg/kg/day) is listed as “recovered”. The “time exploring old object, same location (Os) vs different location (Od), paired t-test” value is on record as “had the trend of significance” in assay [3] (MPTP+DCS 5 mg/kg/day (E1)) and “spent a longer time exploring the old object placed in the same location (Os)” in assay [3] (MPTP+DCS 10 mg/kg/day (E2), P<0.05). The “time exploring recent object, displaced (Rd) vs same place (Rs), paired t-test” value in assay [3] (MPTP+DCS 5 mg/kg/day (E1)) was “no differences between exploring Rs and exploring Rd”; in assay [3] (MPTP+DCS 10 mg/kg/day (E2), P<0.001), “spent a longer time exploring the displaced object (Rd)”. The “total exploration time in the test trial” value in assay [3] (MPTP+DCS 5 mg/kg/day i.p. for 13 days (E1)) turned out to be 54.4 ± 5.9 s; in assay [3] (MPTP+DCS 10 mg/kg/day i.p. for 13 days (E2)), 25.4 ± 4.3 s. The “MPTP-induced microglial activation in the SNc” value in assay [4] (DCS 5 mg/kg/day) and in assay [4] (DCS 10 mg/kg/day) was “suppressed” throughout. The “MPTP-induced microglial activation in the hippocampus” value in assay [4] (DCS 5 mg/kg/day) and in assay [4] (DCS 10 mg/kg/day) was “suppressed” in each case. In assay [4] (DCS 5 and 10 mg/kg/day groups vs other groups), the “microglial activation in the striatum” value is “no significant difference between the groups”.
